Assay results taken from PMC10041525, “New Dual Inhibitors of Bacterial Topoisomerases with Broad-Spectrum Antibacterial Activity and In Vivo Efficacy against Vancomycin-Intermediate Staphylococcus aureus” (Journal of Medicinal Chemistry, 2023).
Values joined by “and” are separate entries in the source; they are usually repeats but may differ in a detail not shown here. Identical values can stand only once.

Columns and labels:
Format in all cases: cell-based
P. aeruginosa ATCC 27853 = experiment: IHMA QC MIC
E. coli ATCC 35218 = experiment: IHMA QC MIC
Protocol: The panel of Hungarian clinical isolates and controls measured following the same method as detailed above, and albeit measurements were carried out in 384-well microtiter plates (Corning Inc.).

[1] = tested on: 100 A. baumannii strains (50 MDR, 50 non-MDR); experiment: MIC broth microdilution at IHMA Europe, panel of 100 strains

With “piperacillin/tazobactam [Piperacillin Tazobactam]” the “MIC (QC, repeated tests)” value (P. aeruginosa ATCC 27853) was 4 µg/mL and 8 µg/mL, the “MIC (QC, repeated tests)” value (E. coli ATCC 35218) was 1 µg/mL and the MIC ([1]; A. baumannii IHMA 1769393, Lithuania 2018, Non-MDR) was ≤0.25 µg/mL. For the same substance, the MIC ([1]; A. baumannii IHMA 1769782, Israel 2018, MDR) was >128 µg/mL, the MIC ([1]; A. baumannii IHMA 1769910, Israel 2018, Non-MDR) was ≤0.25 µg/mL and the MIC ([1]; A. baumannii IHMA 1790317, Czech Republic 2018, Non-MDR) was ≤0.25 µg/mL. The MIC ([1]; A. baumannii IHMA 1790916, Romania 2018, Non-MDR) was ≤0.25 µg/mL, the MIC ([1]; A. baumannii IHMA 1791877, Israel 2018, MDR) was >128 µg/mL and the MIC ([1]; A. baumannii IHMA 1792961, Jordan 2018, MDR) was >128 µg/mL. For the same substance, the MIC ([1]; A. baumannii IHMA 1795669, Tunisia 2018, Non-MDR) was ≤0.25 µg/mL, the MIC ([1]; A. baumannii IHMA 1814276, Lebanon 2018, MDR) was >128 µg/mL and the MIC ([1]; A. baumannii IHMA 1815198, Kuwait 2018, MDR) was >128 µg/mL. The MIC ([1]; A. baumannii IHMA 1815856, Israel 2018, MDR) was >128 µg/mL, the MIC ([1]; A. baumannii IHMA 1821468, South Africa 2018, Non-MDR) was ≤0.25 µg/mL and the MIC ([1]; A. baumannii IHMA 1829500, Georgia 2018, Non-MDR) was ≤0.25 µg/mL. The MIC ([1]; A. baumannii IHMA 1830924, United Kingdom 2018, Non-MDR) was 16 µg/mL, the MIC ([1]; A. baumannii IHMA 1849819, Kuwait 2018, MDR) was >128 µg/mL and the MIC ([1]; A. baumannii IHMA 1849829, Kuwait 2018, Non-MDR) was ≤0.25 µg/mL. The MIC ([1]; A. baumannii IHMA 1857118, Slovenia 2018, Non-MDR) was ≤0.25 µg/mL, the MIC ([1]; A. baumannii IHMA 1863631, France 2018, Non-MDR) was ≤0.25 µg/mL and the MIC ([1]; A. baumannii IHMA 1870054, United States 2018, Non-MDR) was ≤0.25 µg/mL. The MIC ([1]; A. baumannii IHMA 1884428, Italy 2018, Non-MDR) was ≤0.25 µg/mL, the MIC ([1]; A. baumannii IHMA 1884990, Germany 2018, Non-MDR) was ≤0.25 µg/mL and the MIC ([1]; A. baumannii IHMA 1900538, Turkey 2018, Non-MDR) was ≤0.25 µg/mL. For the same substance, the MIC ([1]; A. baumannii IHMA 1913773, Kenya 2018, Non-MDR) was ≤0.25 µg/mL, the MIC ([1]; A. baumannii IHMA 1926285, Qatar 2018, Non-MDR) was ≤0.25 µg/mL and the MIC ([1]; A. baumannii IHMA 1926288, Qatar 2018, MDR) was >128 µg/mL. The MIC ([1]; A. baumannii IHMA 1957343, Portugal 2019, Non-MDR) was 8 µg/mL, the MIC ([1]; A. baumannii IHMA 1963732, Turkey 2019, MDR) was >128 µg/mL and the MIC ([1]; A. baumannii IHMA 1967860, Spain 2019, Non-MDR) was ≤0.25 µg/mL. The MIC ([1]; A. baumannii IHMA 1971673, Latvia 2019, MDR) was >128 µg/mL, the MIC ([1]; A. baumannii IHMA 1975075, Israel 2019, Non-MDR) was 8 µg/mL and the MIC ([1]; A. baumannii IHMA 1977077, Kuwait 2019, Non-MDR) was 16 µg/mL. For the same substance, the MIC ([1]; A. baumannii IHMA 1983151, Greece 2019, MDR) was >128 µg/mL, the MIC ([1]; A. baumannii IHMA 1984665, Lithuania 2019, MDR) was >128 µg/mL and the MIC ([1]; A. baumannii IHMA 1986678, Turkey 2019, Non-MDR) was ≤0.25 µg/mL. For the same substance, the MIC ([1]; A. baumannii IHMA 1986738, Turkey 2019, MDR) was >128 µg/mL, the MIC ([1]; A. baumannii IHMA 1987162, Croatia 2019, MDR) was >128 µg/mL and the MIC ([1]; A. baumannii IHMA 1993615, Turkey 2019, MDR) was >128 µg/mL. The MIC ([1]; A. baumannii IHMA 1994284, Italy 2019, MDR) was >128 µg/mL, the MIC ([1]; A. baumannii IHMA 1995161, Czech Republic 2019, Non-MDR) was ≤0.25 µg/mL and the MIC ([1]; A. baumannii IHMA 1997936, Morocco 2019, Non-MDR) was 4 µg/mL. The MIC ([1]; A. baumannii IHMA 1999178, Belgium 2019, Non-MDR) was 4 µg/mL, the MIC ([1]; A. baumannii IHMA 2003279, Turkey 2019, MDR) was >128 µg/mL and the MIC ([1]; A. baumannii IHMA 2014367, Jordan 2019, Non-MDR) was 4 µg/mL. The MIC ([1]; A. baumannii IHMA 2014931, South Africa 2019, Non-MDR) was 0.5 µg/mL, the MIC ([1]; A. baumannii IHMA 2019315, Romania 2019, Non-MDR) was ≤0.25 µg/mL and the MIC ([1]; A. baumannii IHMA 2020360, Croatia 2019, MDR) was >128 µg/mL. The MIC ([1]; A. baumannii IHMA 2031511, Greece 2019, Non-MDR) was ≤0.25 µg/mL, the MIC ([1]; A. baumannii IHMA 2031524, Greece 2019, MDR) was >128 µg/mL and the MIC ([1]; A. baumannii IHMA 2034657, Tunisia 2019, Non-MDR) was ≤0.25 µg/mL. The MIC ([1]; A. baumannii IHMA 2035089, Serbia 2019, MDR) was >128 µg/mL, the MIC ([1]; A. baumannii IHMA 2035134, Serbia 2019, Non-MDR) was 4 µg/mL and the MIC ([1]; A. baumannii IHMA 2038976, Hungary 2019, MDR) was >128 µg/mL. For the same substance, the MIC ([1]; A. baumannii IHMA 2051503, Serbia 2019, MDR) was >128 µg/mL, the MIC ([1]; A. baumannii IHMA 2058329, Slovenia 2019, Non-MDR) was ≤0.25 µg/mL and the MIC ([1]; A. baumannii IHMA 2065587, France 2019, Non-MDR) was ≤0.25 µg/mL. The MIC ([1]; A. baumannii IHMA 2099294, United Kingdom 2019, Non-MDR) was 4 µg/mL, the MIC ([1]; A. baumannii IHMA 2129256, Qatar 2019, Non-MDR) was ≤0.25 µg/mL and the MIC ([1]; A. baumannii IHMA 2154584, Israel 2020, MDR) was >128 µg/mL. For the same substance, the MIC ([1]; A. baumannii IHMA 2155340, Kenya 2020, MDR) was >128 µg/mL, the MIC ([1]; A. baumannii IHMA 2156634, Turkey 2020, MDR) was >128 µg/mL and the MIC ([1]; A. baumannii IHMA 2156709, Turkey 2020, MDR) was >128 µg/mL. For the same substance, the MIC ([1]; A. baumannii IHMA 2157614, Australia 2020, Non-MDR) was ≤0.25 µg/mL, the MIC ([1]; A. baumannii IHMA 2177232, Lithuania 2020, MDR) was >128 µg/mL and the MIC ([1]; A. baumannii IHMA 2177489, Lithuania 2020, MDR) was >128 µg/mL. The MIC ([1]; A. baumannii IHMA 2178574, Ukraine 2020, Non-MDR) was 2 µg/mL, the MIC ([1]; A. baumannii IHMA 2180134, Malaysia 2020, Non-MDR) was 2 µg/mL and the MIC ([1]; A. baumannii IHMA 2180142, Malaysia 2020, MDR) was >128 µg/mL. For the same substance, the MIC ([1]; A. baumannii IHMA 2181370, Morocco 2020, MDR) was >128 µg/mL, the MIC ([1]; A. baumannii IHMA 2183729, Argentina 2020, MDR) was >128 µg/mL and the MIC ([1]; A. baumannii IHMA 2183849, Argentina 2020, Non-MDR) was ≤0.25 µg/mL. For the same substance, the MIC ([1]; A. baumannii IHMA 2184382, Japan 2020, Non-MDR) was ≤0.25 µg/mL.
